Read-outs that look alike come from different tables or passages of the source.
Columns and labels:
Spodoptera frugiperda = Spodoptera frugiperda - spray test (cotton leaves); assay type: in vivo
Procedure: (§1) The expected efficacy of a given combination of two compounds is calculated as follows (see Colby, S. R., “Calculating Synergistic and antagonistic Responses of Herbicide Combinations”, Weeds 15, pp. 20-22, 1967): • If • X is the efficacy expressed in % mortality of the untreated control for test compound A at a concentration of m ppm respectively m g/ha, • Y is the efficacy expressed in % mortality of the untreated control for test compound B at a concentration of n ppm respectively n g/ha, • E is the efficacy expressed in % mortality of the untreated control using the mixture of A and B at m and n ppm respectively m and n g/ha, • then is
(§2) If the observed insecticidal efficacy of the combination is higher than the one calculated as “E”, then the combination of the two compounds is more than additive, i.e. there is a synergistic effect.
Spodoptera frugiperda—Spray Test
(§3) • Solvent: 7 parts by weight of dimethylformamide • Emulsifier: alkylaryl polyglycol ether
(§4) To produce a suitable preparation of active compound, 1 part by weight of active compound is mixed with the stated amount of solvent and is diluted with water, containing an emulsifier concentration of 1000 ppm, to the desired concentration. Further test concentrations are prepared by dilution with emulsifier containing water.
Cotton leaves (Gossypium hirsutum) are treated by being sprayed with the preparation of the active compound of the desired concentration and are infested with caterpillars of the fall army worm (Spodoptera frugiperda).
After the specified period of time mortality in % is determined. 100% means all the caterpillars have been killed and 0% means none of the caterpillars have been killed. The mortality values determined thus are recalculated using the Colby-formula (see above).

Phaedon cochleariae = Phaedon cochleariae - spray test (cabbage leaves); assay type: in vivo
Procedure: as §1, §2
Phaedon cochleariae—Spray Test
as §3, §4
Cabbage leaves (Brassica oleracea) are treated by being sprayed with the preparation of the active compound of the desired concentration and are infested with mustard beetle larvae (Phaedon cochleariae).
After the specified period of time mortality in % is determined. 100% means all the beetle larvae have been killed and 0% means none of the beetle larvae have been killed. The mortality values determined thus are recalculated using the Colby-formula (see sheet 1).

[1] = Spodoptera frugiperda, 72 h, read-out: Mortality in % after 3 days

## CON(C(=O)c1cn(C)nc1C(F)F)C(C)Cc1c(Cl)cc(Cl)cc1Cl (racemic) [Pydiflumetofen, 3-(difluoromethyl)-N-methoxy-1-methyl-N—[(RS)-1-methyl-2-(2,4,6-trichlorophenyl)ethyl]-1H-pyrazole-4-carboxamide]
Spodoptera frugiperda; Spodoptera frugiperda, 48 h, read-out: Mortality in % after 2 days
  mortality at 1.5 ppm: 0%
Spodoptera frugiperda; [1]
  mortality at 1.5 ppm: 0%
  mortality at 3 ppm: 0%
Spodoptera frugiperda; Spodoptera frugiperda, 144 h, read-out: Mortality in % after 6 days
  mortality at 1.5 ppm: 0%

## CS(=O)(=O)Oc1cccc(Cl)c1C1CC(c2csc(C3CCN(C(=O)Cn4nc(C(F)F)cc4C(F)F)CC3)n2)=NO1 (centres unmarked) [Fluoxapiprolin, fluoxapiprolin]
Phaedon cochleariae; 3 ppm
  Mortality in % after 1 day: 0%
  Mortality in % after 2 days: 0%
Phaedon cochleariae; 6 ppm
  Mortality in % after 1 day: 0%

## tetraniliprole
Spodoptera frugiperda; 0.06 ppm, after 2 days, caterpillars on sprayed cotton leaves
  Mortality in % after 2 days: 20%
Spodoptera frugiperda; 0.06 ppm
  Mortality in % after 3 days: 30%
Spodoptera frugiperda; 0.06 ppm, after 6 days
  Mortality in % after 6 days: 60%
Spodoptera frugiperda; 0.12 ppm
  Mortality in % after 3 days: 80%
Phaedon cochleariae; 0.12 ppm
  Mortality in % after 1 day: 10%
  Mortality in % after 2 days: 40%
Phaedon cochleariae; 0.24 ppm, beetle larvae on sprayed cabbage leaves
  Mortality in % after 1 day: 30%
